Data from PubChem BioAssay (NCI).
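Step 1: Grow cells in 96-well plates. Step 2: Expose to compound for 48 hours at 5 concentrations. Step 3: Interpolate endpoints linearly; if unreached, use highest concentration. The concentration for 50% growth inhibition is given as GI50. TGI: concentration producing complete growth inhibition.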

What was measured:
Assay in all cases: growth of human tumour cells (NCI), 48 h
A549 NSCLC = test system: A549 NSCLC
HCC-2998 colon = test system: HCC-2998 colon
MALME-3M melanoma = test system: MALME-3M melanoma
MCF7 breast = test system: MCF7 breast
NCI-H226 lung = test system: NCI-H226 lung
NCI/ADR-RES ovarian = test system: NCI/ADR-RES ovarian
OVCAR-3 ovarian = test system: OVCAR-3 ovarian
PC-3 prostate = test system: PC-3 prostate
SW-620 colon = test system: SW-620 colon
MDA-N = test system: MDA-N

SMILES | TGI (A549 NSCLC) | TGI (HCC-2998 colon) | TGI (MALME-3M melanoma) | TGI (MCF7 breast) | TGI (NCI-H226 lung) | TGI (NCI/ADR-RES ovarian) | TGI (OVCAR-3 ovarian) | TGI (PC-3 prostate) | TGI (SW-620 colon) | TGI (MDA-N) | GI50 (MALME-3M melanoma) | GI50 (MCF7 breast) | GI50 (NCI/ADR-RES ovarian) | GI50 (PC-3 prostate) | GI50 (A549 NSCLC) | GI50 (HCC-2998 colon) | GI50 (NCI-H226 lung) | GI50 (OVCAR-3 ovarian) | GI50 (SW-620 colon)
Cc1ccc(S(=O)(=O)NC(=O)Nc2nnc(S(N)(=O)=O)s2)cc1 | > 100 µM | > 100 µM | > 100 µM | > 100 µM | > 100 µM | > 100 µM | > 100 µM | > 100 µM | > 100 µM | – | – | – | – | – | – | – | – | – | –
Cn1c(=O)c2[nH]c(N/N=N/c3nncs3)nc2n(C)c1=O | > 100 µM | > 100 µM | – | > 100 µM | – | > 100 µM | > 100 µM | > 100 µM | > 100 µM | – | – | – | – | – | – | – | – | – | –
CC(C)(C)c1ccc(OCCOc2ccc(C(C)(C)C)cc2N)c(N)c1 | > 100 µM | > 100 µM | > 100 µM | > 100 µM | > 100 µM | > 100 µM | > 100 µM | > 100 µM | > 100 µM | – | – | – | – | – | – | – | – | – | –
c1ccc(-c2csc3c4ccccc4c4ccccc4[n+]23)cc1 | 19.5 µM | 13 µM | 3.21 µM | – | 11.5 µM | – | 5.29 µM | – | 17.4 µM | – | – | – | – | – | – | – | – | – | –
COC(=O)C1(NC(=O)C(CC(=O)OCc2ccccc2)NC(=O)OCc2ccccc2)CCCCCC1 (centres undefined) | > 100 µM | – | > 100 µM | > 100 µM | 72.7 µM | 82.5 µM | > 100 µM | > 100 µM | > 100 µM | 61.4 µM | – | – | – | – | – | – | – | – | –
CC12CCC(CC(=O)/C1=C(/Br)I)C2(C)C (centres undefined) | 29.3 µM | – | 25.8 µM | – | 29.9 µM | 29.8 µM | 26.9 µM | 23.6 µM | 34.4 µM | 26.7 µM | – | – | – | – | – | – | – | – | –
C[C@@H]1OC(=O)C[C@H]2CC(=O)N(CCC3CN(C(=O)OCc4ccccc4)c4ccccc43)C[C@@H]21 (some centres undefined) | > 100 µM | > 100 µM | > 100 µM | > 100 µM | – | > 100 µM | > 100 µM | > 100 µM | > 100 µM | > 100 µM | – | – | – | – | – | – | – | – | –
O=C(/C=C(/C=C/c1ccc2[nH]ccc2c1)OB(F)F)/C=C/c1ccc2[nH]ccc2c1 | – | – | > 100 µM | 15 µM | – | > 100 µM | – | > 100 µM | – | – | 2.62 µM | 0.376 µM | 2.7 µM | 1.49 µM | – | – | – | – | –
COc1ccc(N2CC(=O)N(C(=O)COc3ccc(OCC(=O)N4C(=O)CN(c5ccc(OC)cc5)C4=S)cc3)C2=S)cc1 | > 100 µM | > 100 µM | > 100 µM | > 100 µM | > 100 µM | > 100 µM | – | > 100 µM | > 100 µM | > 100 µM | – | – | – | – | – | – | – | – | –
CCO/C(=N/S(=O)(=O)C(F)(F)F)N(C(C)C)C(C)C | > 100 µM | – | > 100 µM | > 100 µM | – | > 100 µM | – | > 100 µM | > 100 µM | > 100 µM | – | – | – | – | – | – | – | – | –
CCOC(=O)C(C#N)(Cc1c[nH]c2ccccc12)NC(C)=O (centres undefined) | – | > 100 µM | > 100 µM | – | > 100 µM | – | > 100 µM | – | > 100 µM | – | – | – | – | – | – | – | – | – | –
C[C@@]1(O)C2CC3CC1(c1ccccc1)CC(/C3=N/O)/C2=N\O (some centres undefined) | > 100 µM | > 100 µM | > 100 µM | – | > 100 µM | > 100 µM | > 100 µM | > 100 µM | > 100 µM | – | – | – | – | – | – | – | – | – | –
CC(N=NNc1ccc(-c2nc3ccccc3[nH]2)cc1)C(=O)O (centres undefined) | > 100 µM | – | > 100 µM | 34.1 µM | > 100 µM | 90.6 µM | 54.7 µM | > 100 µM | > 100 µM | > 100 µM | – | – | – | – | – | – | – | – | –
COc1cc(C2c3c(ccc4ccccc34)C(=O)C3CCC(=O)N32)cc(OC)c1OC (centres undefined) | > 50 µM | – | – | > 50 µM | > 50 µM | > 50 µM | > 50 µM | > 50 µM | > 50 µM | > 50 µM | – | – | – | – | – | – | – | – | –
N#CN1C2CCC1CC(=O)C2 | > 100 µM | > 100 µM | > 100 µM | > 100 µM | – | > 100 µM | > 100 µM | > 100 µM | > 100 µM | > 100 µM | – | – | – | – | – | – | – | – | –
Cc1ccc(C(=N)c2ccccc2Cc2cccc3ccccc23)c2ccccc12 | > 100 µM | – | > 100 µM | > 100 µM | > 100 µM | > 100 µM | > 100 µM | > 100 µM | > 100 µM | – | – | – | – | – | – | – | – | – | –
Cc1ccc2c(c1)-c1nc(N)c(C#N)c(-c3ccc(Cl)cc3)c1CCS2(=O)=O | > 100 µM | > 100 µM | > 100 µM | – | > 100 µM | > 100 µM | – | > 100 µM | > 100 µM | > 100 µM | – | – | – | – | – | – | – | – | –
C[C@H](c1ccccc1)N1C(=O)[C@@H](O)[C@H]1[C@H](CO)OCc1ccccc1 | > 100 µM | – | > 100 µM | > 100 µM | > 100 µM | > 100 µM | > 100 µM | > 100 µM | > 100 µM | > 100 µM | – | – | – | – | – | – | – | – | –
CC(C)(C)c1ccccc1N1C(=O)c2ccc3c4c(ccc(c24)C1=O)N(c1ccccc1C(C)(C)C)C3=O | > 100 µM | > 100 µM | – | > 100 µM | – | > 100 µM | > 100 µM | > 100 µM | > 100 µM | > 100 µM | – | – | – | – | – | – | – | – | –
CCCCN(CCCC)Cc1cc(Nc2ccnc3cc(Cl)ccc23)ccc1O | > 100 µM | > 100 µM | > 100 µM | > 100 µM | > 100 µM | > 100 µM | > 100 µM | > 100 µM | – | – | 24.5 µM | 8.91 µM | 4.38 µM | 5.73 µM | 19.8 µM | 42.4 µM | 11.1 µM | 74.7 µM | –
CCNCCNC(=O)c1ccc(I)cc1 | > 100 µM | > 100 µM | – | > 100 µM | > 100 µM | > 100 µM | > 100 µM | > 100 µM | > 100 µM | – | – | – | – | – | – | – | – | – | –
Cc1cc([NH-])c([NH-])cc1C.[Cl][Pt+2][Cl] | > 100 µM | 99.1 µM | 36.6 µM | 25.2 µM | 64 µM | 42.7 µM | 33.6 µM | – | 27 µM | – | 18 µM | 7.37 µM | 16.3 µM | – | 49 µM | > 44.8 µM | 13.5 µM | 17.9 µM | 5.06 µM
C=CCC1(C#N)C(=S)NC2=C(C(=O)CC(C)(C)C2)C1c1ccccc1 (centres undefined) | > 100 µM | – | – | – | > 100 µM | > 100 µM | – | > 100 µM | > 100 µM | > 100 µM | – | – | – | – | – | – | – | – | –
